The source of these data is patent US4732969A, “Des-19-leucine, 20-glutamine-calcitonin” (Armour Pharmaceutical Corporation, priority 1986, dated 1988).

The conditions of assay [1]: literature value, Experientia 32(9), 1104-1106 (1976); cited from earlier work.
Assay [2] deals with serum calcium concentration.
Method: Biological Assay Of Calcitonin Analogs In Vivo
Rats were divided into four groups of seven animals, and each group was assigned at random to a dose of standard or test solution. Low and high doses were chosen from the linear portion of the dose-response curve. For the salmon calcitonin standard, the values were 0.7 and 2.1 ng. peptide/100 g. body weight (BW). This dose approximates 3 and 9 MU/100 g. BW. Peptides were given by subcutaneous injection (0.2 ml/100 g. BW) and blood was withdrawn 1 hour later for serum calcium determination. Sera are processed and analyzed within two hours of collection. Results were analyzed within two hours of collection.

Where a SMILES comes first, the peptide text is derived from it. Bridges are numbered along the chain shown (N, C = ends).

With “eel calcitonin [synthetic eel calcitonin]”, the hypocalcemic potency result in assay [1] is given as “around 4300 IU/mg”.

Consider `CC(C)C[C@H](NC(=O)[C@H](CCCCN)NC(=O)CNC(=O)[C@H](CC(C)C)NC(=O)[C@@H](NC(=O)[C@@H]1CSSC[C@H](N)C(=O)N[C@@H](CO)C(=O)N[C@@H](CC(N)=O)C(=O)N[C@@H](CC(C)C)C(=O)N[C@@H](CO)C(=O)N[C@@H]([C@@H](C)O)C(=O)N1)C(C)C)C(=O)N[C@@H](CO)C(=O)N[C@@H](CCC(N)=O)C(=O)N[C@@H](CCC(=O)O)C(=O)N[C@@H](CC(C)C)C(=O)N[C@@H](Cc1c[nH]cn1)C(=O)N[C@@H](CCCCN)C(=O)N[C@H](C(=O)N[C@@H](Cc1ccc(O)cc1)C(=O)N1CCC[C@H]1C(=O)N[C@@H](CCCNC(=N)N)C(=O)N[C@H](C(=O)N[C@@H](CC(N)=O)C(=O)N[C@H](C(=O)NCC(=O)N[C@@H](CO)C(=O)NCC(=O)N[C@H](C(=O)N1CCC[C@H]1C(N)=O)[C@@H](C)O)[C@@H](C)O)[C@@H](C)O)[C@@H](C)O` [des-Leu^19 -Gln^20 -SCT, des-19-leucine, 20-glutamine-salmon calcitonin] (H-CSNLSTCVLGKLSQELHKTYPRTNTGSGTP-NH2; disulfide 1-7), for which the biological potency in assay [2] (rat, in vivo, sc) stood at 6900 IU/mg.

Take “(1,7-α-L-aminosuberic acid)eel calcitonin”: the hypocalcemic potency entry in assay [1] is “about 3400 IU/mg”.

Regarding `CC(C)C[C@H](NC(=O)[C@H](CCCCN)NC(=O)CNC(=O)[C@H](CC(C)C)NC(=O)[C@@H](NC(=O)[C@@H]1CSSC[C@H](N)C(=O)N[C@@H](CO)C(=O)N[C@@H](CC(N)=O)C(=O)N[C@@H](CC(C)C)C(=O)N[C@@H](CO)C(=O)N[C@@H]([C@@H](C)O)C(=O)N1)C(C)C)C(=O)N[C@@H](CO)C(=O)N[C@@H](CCC(N)=O)C(=O)N[C@@H](CCC(=O)O)C(=O)N[C@@H](CC(C)C)C(=O)N[C@@H](Cc1c[nH]cn1)C(=O)N[C@@H](CCCCN)C(=O)N[C@@H](CC(C)C)C(=O)N[C@@H](CCC(N)=O)C(=O)N[C@H](C(=O)N[C@@H](Cc1ccc(O)cc1)C(=O)N1CCC[C@H]1C(=O)N[C@@H](CCCNC(=N)N)C(=O)N[C@H](C(=O)N[C@@H](CC(N)=O)C(=O)N[C@H](C(=O)NCC(=O)N[C@@H](CO)C(=O)NCC(=O)N[C@H](C(=O)N1CCC[C@H]1C(N)=O)[C@@H](C)O)[C@@H](C)O)[C@@H](C)O)[C@@H](C)O` [standard salmon calcitonin, salmon calcitonin], the “potency content of the standard” value in assay [2] (standard used in the assay, independently determined) is “greater than 4,000 IU/mg”.
